Read-outs that look alike come from different tables or passages of the source.
What was measured:
Format in all cases: binding
HLA-B*58:01 = HLA-B*58:01 (Homo sapiens, UniProt P01889, A329T/C349S/D201E/D98Y/E176V/E187L/E204Q/E69T/G107R/I218V/I90N/K202T/L105A/L119I/N104I/N87E/Q89R/Q94S/R106L/R155S/R180L/R86G/S101N/S121R/S35A/S48A/T118I/V127L/V306I/V36M/Y140S/Y91M); details: duplicated experiments, positive binder >40%
HLA-C*07:01 = HLA-C*07:01 (Homo sapiens, UniProt P10321, K90N/S123Y); details: duplicated experiments, positive binder >40%
HLA-A*30:02 [1] = molecular target: T1, HLA-A*30:02 (Homo sapiens, UniProt P04439, D101N/D140H/D185E/E176R/F33S/G80R/H175R/K168Q/Q94H/R138E/R41S/V100E); details: time points 0-8 h
HLA-A*68:01 = HLA-A*68:01 (Homo sapiens, UniProt P04439, A269V/D185E/E176V/E277Q/E87N/F33Y/G231S/I121M/I166T/I218V/L180W/L300P/L318F/N151K/P208A/P217A/Q86R/R169H/T345S); details: duplicated experiments, positive binder >40%
HLA-A*30:02 [2] = molecular target: T1, HLA-A*30:02
HLA-A*02:01 = HLA-A*02:01 (Homo sapiens, UniProt P04439, D140Y/D185E/D98H/E176V/E277Q/G131W/G231S/I119V/I121R/I166T/I218V/L300P/L318F/N151K/N90K/P208A/P217A/Q86G/Q94H/R138H/R169H/T345S); details: plate-bound monomer 0.5 µg/ml, duplicated experiments, positive binder >40%
HLA-A*30:02 [3] = molecular target: T1, HLA-A*30:02; details: duplicated experiments, positive binder >40%
HLA-A*30:01 = HLA-A*30:01 (Homo sapiens, UniProt P04439, D140H/D185E/E176W/F33S/G80R/H175R/K168Q/R138E/R41S); details: duplicated experiments, positive binder >40%
HLA-A*24:02 = HLA-A*24:02 (Homo sapiens, UniProt P04439, D101N/D140Y/D185E/E176V/E190D/F33S/G103R/G107R/I119L/I121M/I306V/K335N/L105A/L180Q/L300P/N151K/N90K/Q86E/Q94H/R106L/R138H/R89G/T104I/T345S/V100E/W191G/Y123F); details: duplicated experiments, positive binder >40%
HLA-B*07:02 = HLA-B*07:02 (Homo sapiens, UniProt P01889); details: percent relative the binding of positive control peptide […]; duplicated experiments; positive binder >40%
[4] = percent relative the binding of positive control peptide IAMESIVIW
[5] = percent relative the binding of positive control peptide KYFDEHYEY
[6] = percent relative the binding of positive control peptide KTGGPIYKR
[7] = peptide titrated 10−4 to 10−9 M
[8] = percent relative the binding of positive control peptide FLPSDFFPSV
[9] = percent relative the binding of positive control peptide KIQNFRVYY
[10] = percent relative the binding of positive control peptide KTKDIVNGL
[11] = percent relative the binding of positive control peptide RYLKDQQLL
[12] = percent relative the binding of positive control peptide […]

RTISEAGQA [Rv3875_74–82]
Bind B*58:01 (HLA-B*58:01; [4]): 34%
Bind C*07:01 (HLA-C*07:01; [5]): 8%
O-rate A*30:02 (t1/2) (HLA-A*30:02 [1]): 2 h
Bind A*68:01 (HLA-A*68:01; [6]): 4%
Aff A*30:02 (ED50) (HLA-A*30:02 [2]; [7]): 3e-08 M
Bind A*02:01 (HLA-A*02:01; [8]): 18%
Bind A*30:02 (HLA-A*30:02 [3]; [9]): 98%
Bind A*30:01 (HLA-A*30:01; [10]): 19%
Bind A*24:02 (HLA-A*24:02; [11]): 0%
Bind B*07:02 (HLA-B*07:02): 11%

AAAWGGSGS [Rv3875_40-48]
Bind B*58:01 (HLA-B*58:01; [4]): 8%
Bind C*07:01 (HLA-C*07:01; [5]): 29%
O-rate A*30:02 (t1/2) (HLA-A*30:02 [1]): 1.1 h
Bind A*68:01 (HLA-A*68:01; [6]): 15%
Aff A*30:02 (ED50) (HLA-A*30:02 [2]; [7]): 5e-09 M
Bind A*02:01 (HLA-A*02:01; [8]): 8%
Bind A*30:02 (HLA-A*30:02 [3]; [9]): 129%
Bind A*30:01 (HLA-A*30:01; [10]): 29%
Bind A*24:02 (HLA-A*24:02; [11]): 0%
Bind B*07:02 (HLA-B*07:02): 4%

SAMILAAYH
Bind B*58:01 (HLA-B*58:01; [12]): 0%
Bind C*07:01 (HLA-C*07:01; [12]): 15%
O-rate A*30:02 (t1/2) (HLA-A*30:02 [1]): 2.2 h
Bind A*68:01 (HLA-A*68:01; [12]): 69%
Aff A*30:02 (ED50) (HLA-A*30:02 [2]): 4e-08 M
Bind A*02:01 (HLA-A*02:01; [12]): 9%
Bind A*30:02 (HLA-A*30:02 [3]; [12]): 111%
Bind A*30:01 (HLA-A*30:01; [12]): 0%
Bind A*24:02 (HLA-A*24:02; [12]): 0%
Bind B*07:02 (HLA-B*07:02): 7%

VFNFPPNGT
Bind B*58:01 (HLA-B*58:01; [12]): 33%
Bind C*07:01 (HLA-C*07:01; [12]): 0%
O-rate A*30:02 (t1/2) (HLA-A*30:02 [1]): 1.2 h
Bind A*68:01 (HLA-A*68:01; [12]): 3%
Aff A*30:02 (ED50) (HLA-A*30:02 [2]): 3e-05 M
Bind A*02:01 (HLA-A*02:01; [12]): 34%
Bind A*30:02 (HLA-A*30:02 [3]; [12]): 113%
Bind A*30:01 (HLA-A*30:01; [12]): 3%
Bind A*24:02 (HLA-A*24:02; [12]): 25%
Bind B*07:02 (HLA-B*07:02): 0%

GVQQKWDAT [Rv3875_53–61]
Bind B*58:01 (HLA-B*58:01; [4]): 6%
Bind C*07:01 (HLA-C*07:01; [5]): 9%
O-rate A*30:02 (t1/2) (HLA-A*30:02 [1]): 1.3 h
Bind A*68:01 (HLA-A*68:01; [6]): 0%
Aff A*30:02 (ED50) (HLA-A*30:02 [2]; [7]): 3e-08 M
Bind A*02:01 (HLA-A*02:01; [8]): 0%
Bind A*30:02 (HLA-A*30:02 [3]; [9]): 78%
Bind A*30:01 (HLA-A*30:01; [10]): 9%
Bind A*24:02 (HLA-A*24:02; [11]): 0%
Bind B*07:02 (HLA-B*07:02): 10%

IYAGSLSAL
Bind B*58:01 (HLA-B*58:01; [12]): 16%
Bind C*07:01 (HLA-C*07:01; [12]): 0%
O-rate A*30:02 (t1/2) (HLA-A*30:02 [1]): 0.5 h
Bind A*68:01 (HLA-A*68:01; [12]): 4%
Aff A*30:02 (ED50) (HLA-A*30:02 [2]): 4E -06 M
Bind A*02:01 (HLA-A*02:01; [12]): 44%
Bind A*30:02 (HLA-A*30:02 [3]; [12]): 116%
Bind A*30:01 (HLA-A*30:01; [12]): 0%
Bind A*24:02 (HLA-A*24:02; [12]): 107%
Bind B*07:02 (HLA-B*07:02): 83%

RAQDDYNGW
Bind B*58:01 (HLA-B*58:01; [12]): 41%
Bind C*07:01 (HLA-C*07:01; [12]): 2%
O-rate A*30:02 (t1/2) (HLA-A*30:02 [1]): 1.2 h
Bind A*68:01 (HLA-A*68:01; [12]): 2%
Aff A*30:02 (ED50) (HLA-A*30:02 [2]): 5e-07 M
Bind A*02:01 (HLA-A*02:01; [12]): 0%
Bind A*30:02 (HLA-A*30:02 [3]; [12]): 119%
Bind A*30:01 (HLA-A*30:01; [12]): 11%
Bind A*24:02 (HLA-A*24:02; [12]): 65%
Bind B*07:02 (HLA-B*07:02): 0%

GQSSFYSDW
Bind B*58:01 (HLA-B*58:01; [12]): 62%
Bind C*07:01 (HLA-C*07:01; [12]): 0%
O-rate A*30:02 (t1/2) (HLA-A*30:02 [1]): 3.3 h
Bind A*68:01 (HLA-A*68:01; [12]): 0%
Aff A*30:02 (ED50) (HLA-A*30:02 [2]): 2e-08 M
Bind A*02:01 (HLA-A*02:01; [12]): 27%
Bind A*30:02 (HLA-A*30:02 [3]; [12]): 71%
Bind A*30:01 (HLA-A*30:01; [12]): 0%
Bind A*24:02 (HLA-A*24:02; [12]): 76%
Bind B*07:02 (HLA-B*07:02): 0%

KFQDAYNAA
Bind B*58:01 (HLA-B*58:01; [12]): 0%
Bind C*07:01 (HLA-C*07:01; [12]): 0%
O-rate A*30:02 (t1/2) (HLA-A*30:02 [1]): 0.7 h
Bind A*68:01 (HLA-A*68:01; [12]): 0%
Aff A*30:02 (ED50) (HLA-A*30:02 [2]): 8e-06 M
Bind A*02:01 (HLA-A*02:01; [12]): 19%
Bind A*30:02 (HLA-A*30:02 [3]; [12]): 113%
Bind A*30:01 (HLA-A*30:01; [12]): 0%
Bind A*24:02 (HLA-A*24:02; [12]): 0%
Bind B*07:02 (HLA-B*07:02): 0%

ATATELNNA [Rv3875_60–68]
Bind B*58:01 (HLA-B*58:01; [4]): 0%
Bind C*07:01 (HLA-C*07:01; [5]): 0%
O-rate A*30:02 (t1/2) (HLA-A*30:02 [1]): 3.8 h
Bind A*68:01 (HLA-A*68:01; [6]): 0%
Aff A*30:02 (ED50) (HLA-A*30:02 [2]; [7]): 3e-07 M
Bind A*02:01 (HLA-A*02:01; [8]): 31%
Bind A*30:02 (HLA-A*30:02 [3]; [9]): 67%
Bind A*30:01 (HLA-A*30:01; [10]): 0%
Bind A*24:02 (HLA-A*24:02; [11]): 0%
Bind B*07:02 (HLA-B*07:02): 12%

WGGSGSEAY [Rv3875_43–51]
Bind B*58:01 (HLA-B*58:01; [4]): 2%
Bind C*07:01 (HLA-C*07:01; [5]): 21%
O-rate A*30:02 (t1/2) (HLA-A*30:02 [1]): 1.1 h
Bind A*68:01 (HLA-A*68:01; [6]): 2%
Aff A*30:02 (ED50) (HLA-A*30:02 [2]; [7]): 4e-07 M
Bind A*02:01 (HLA-A*02:01; [8]): 3%
Bind A*30:02 (HLA-A*30:02 [3]; [9]): 89%
Bind A*30:01 (HLA-A*30:01; [10]): 18%
Bind A*24:02 (HLA-A*24:02; [11]): 0%
Bind B*07:02 (HLA-B*07:02): 7%

LQNLARTIS [Rv3875_69–77]
Bind B*58:01 (HLA-B*58:01; [4]): 20%
Bind C*07:01 (HLA-C*07:01; [5]): 3%
O-rate A*30:02 (t1/2) (HLA-A*30:02 [1]): 2.1 h
Bind A*68:01 (HLA-A*68:01; [6]): 8%
Aff A*30:02 (ED50) (HLA-A*30:02 [2]; [7]): 1e-08 M
Bind A*02:01 (HLA-A*02:01; [8]): 27%
Bind A*30:02 (HLA-A*30:02 [3]; [9]): 77%
Bind A*30:01 (HLA-A*30:01; [10]): 11%
Bind A*24:02 (HLA-A*24:02; [11]): 26%
Bind B*07:02 (HLA-B*07:02): 10%

TATELNNAL [Rv3875_61–69]
Bind B*58:01 (HLA-B*58:01; [4]): 0%
Bind C*07:01 (HLA-C*07:01; [5]): 5%
O-rate A*30:02 (t1/2) (HLA-A*30:02 [1]): 2.6 h
Bind A*68:01 (HLA-A*68:01; [6]): 13%
Aff A*30:02 (ED50) (HLA-A*30:02 [2]; [7]): 9e-09 M
Bind A*02:01 (HLA-A*02:01; [8]): 11%
Bind A*30:02 (HLA-A*30:02 [3]; [9]): 106%
Bind A*30:01 (HLA-A*30:01; [10]): 4%
Bind A*24:02 (HLA-A*24:02; [11]): 15%
Bind B*07:02 (HLA-B*07:02): 12%

SAIQGNVTS [Rv3875_16–24]
Bind B*58:01 (HLA-B*58:01; [4]): 12%
Bind C*07:01 (HLA-C*07:01; [5]): 12%
O-rate A*30:02 (t1/2) (HLA-A*30:02 [1]): 0.9 h
Bind A*68:01 (HLA-A*68:01; [6]): 29%
Aff A*30:02 (ED50) (HLA-A*30:02 [2]; [7]): 3e-08 M
Bind A*02:01 (HLA-A*02:01; [8]): 1%
Bind A*30:02 (HLA-A*30:02 [3]; [9]): 67%
Bind A*30:01 (HLA-A*30:01; [10]): 11%
Bind A*24:02 (HLA-A*24:02; [11]): 15%
Bind B*07:02 (HLA-B*07:02): 4%

Reference: publication PMC3608651, “A Broad Profile of Co-Dominant Epitopes Shapes the Peripheral Mycobacterium tuberculosis Specific CD8+ T-Cell Immune Response in South African Patients with Active Tuberculosis” (PLoS ONE, 2013)
